Reference: the supplement of paper PMC10307832

Columns and labels:
Test in all cases: relative viability (nuclei count vs DMSO), 5 days (fraction); higher = more cells survive
Tipifarnib + AZD7762 = compound: Cn1cncc1[C@@](N)(c1ccc(Cl)cc1)c1ccc2c(c1)c(-c1cccc(Cl)c1)cc(=O)n2C [Tipifarnib] + NC(=O)Nc1cc(-c2cccc(F)c2)sc1C(=O)N[C@H]1CCCNC1 [AZD7762] (partner 0.2 µM)
Outline: (§1)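 After 5 days of treatment, lung cancer cells in 1536-well plates were fixed and stained in a single step (final 0.05% Triton X-100, 1% formaldehyde, 1 ug/ml Hoechst) and their nuclei counted on 4× images. Treatment had been applied by pin tool the day after seeding as one drug alone or as a fixed anchor-drug dose with five library-drug doses (not always all listed) in √10 steps. Relative viability is the nuclei count of treated wells divided by that of vehicle wells, and values are medians of duplicate plates.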

Tipifarnib + Vorinostat = compound: Cn1cncc1[C@@](N)(c1ccc(Cl)cc1)c1ccc2c(c1)c(-c1cccc(Cl)c1)cc(=O)n2C [Tipifarnib] + O=C(CCCCCCC(=O)Nc1ccccc1)NO [Vorinostat] (partner 1 µM)
Outline: as §1

Tipifarnib + Foretinib = compound: Cn1cncc1[C@@](N)(c1ccc(Cl)cc1)c1ccc2c(c1)c(-c1cccc(Cl)c1)cc(=O)n2C [Tipifarnib] + COc1cc2c(Oc3ccc(NC(=O)C4(C(=O)Nc5ccc(F)cc5)CC4)cc3F)ccnc2cc1OCCCN1CCOCC1 [Foretinib] (partner 0.25 µM)
Outline: as §1

Tipifarnib + Pictilisib = compound: Cn1cncc1[C@@](N)(c1ccc(Cl)cc1)c1ccc2c(c1)c(-c1cccc(Cl)c1)cc(=O)n2C [Tipifarnib] + CS(=O)(=O)N1CCN(Cc2cc3nc(-c4cccc5[nH]ncc45)nc(N4CCOCC4)c3s2)CC1 [Pictilisib] (partner 1 µM)
Outline: as §1

Cell Line | relative viability (Tipifarnib + AZD7762; first compound 0.01 µM) | relative viability (Tipifarnib + AZD7762; first compound 0.03162 µM) | relative viability (Tipifarnib + AZD7762; first compound 0.1 µM) | relative viability (Tipifarnib + AZD7762; first compound 0.3162 µM) | relative viability (Tipifarnib + AZD7762; first compound 1 µM) | relative viability (Tipifarnib + Vorinostat; first compound 0.01 µM) | relative viability (Tipifarnib + Vorinostat; first compound 0.03162 µM) | relative viability (Tipifarnib + Vorinostat; first compound 0.1 µM) | relative viability (Tipifarnib + Vorinostat; first compound 0.3162 µM) | relative viability (Tipifarnib + Vorinostat; first compound 1 µM) | relative viability (Tipifarnib + Foretinib; first compound 0.01 µM) | relative viability (Tipifarnib + Foretinib; first compound 0.03162 µM) | relative viability (Tipifarnib + Foretinib; first compound 0.1 µM) | relative viability (Tipifarnib + Foretinib; first compound 0.3162 µM) | relative viability (Tipifarnib + Foretinib; first compound 1 µM) | relative viability (Tipifarnib + Pictilisib; first compound 0.01 µM) | relative viability (Tipifarnib + Pictilisib; first compound 0.03162 µM) | relative viability (Tipifarnib + Pictilisib; first compound 0.1 µM) | relative viability (Tipifarnib + Pictilisib; first compound 0.3162 µM) | relative viability (Tipifarnib + Pictilisib; first compound 1 µM)
NCI-H441 | 1.21 | 0.904 | 0.938 | 0.723 | 0.598 | 1.08 | 0.724 | 0.68 | 0.431 | 0.44 | 0.955 | 0.699 | 0.73 | 0.72 | 0.594 | 0.489 | 0.461 | 0.463 | 0.328 | 0.212
NCI-H1793 | 0.605 | 0.426 | 0.379 | 0.302 | 0.2 | 0.635 | 0.643 | 0.737 | 0.404 | 0.292 | 0.626 | 0.577 | 0.616 | 0.44 | 0.411 | 0.446 | 0.256 | 0.307 | 0.247 | 0.265
NCI-H23 | 0.227 | 0.253 | 0.229 | 0.236 | 0.199 | 0.543 | 0.31 | 0.299 | 0.205 | 0.167 | 1.04 | 0.873 | 0.759 | 0.688 | 0.511 | 0.469 | 0.448 | 0.312 | 0.268 | 0.232
HARA | 0.239 | 0.426 | 0.283 | 0.297 | 0.166 | 0.513 | 0.406 | 0.364 | 0.325 | 0.326 | 1.1 | 0.828 | 0.96 | 0.951 | 0.269 | 0.403 | 0.373 | 0.313 | 0.362 | 0.148
NCI-H1792 | 0.722 | 0.417 | 0.373 | 0.237 | 0.173 |  |  |  |  |  |  |  |  |  |  | 0.237 | 0.235 | 0.152 | 0.117 | 0.131
NCI-H1703 | 0.139 | 0.111 | 0.125 | 0.0872 | 0.14 |  |  |  |  |  | 0.343 | 0.247 | 0.325 | 0.267 | 0.294 | 0.239 | 0.234 | 0.201 | 0.21 | 0.214
NCI-H2342 | 0.509 | 0.506 | 0.36 | 0.449 | 0.39 | 0.847 | 0.746 | 0.597 | 0.73 | 0.516 | 1.06 | 0.984 | 0.884 | 0.824 | 0.771 |  |  |  |  | 
CAL-12T | 0.635 | 0.549 | 0.62 | 0.408 | 0.425 | 0.701 | 0.519 | 0.454 | 0.324 | 0.29 | 1.09 | 0.885 | 0.727 | 0.469 | 0.536 | 0.388 | 0.329 | 0.384 | 0.414 | 0.32
NCI-H727 | 0.613 | 0.608 | 0.519 | 0.504 | 0.571 | 1.15 | 1.22 | 1.18 | 1.32 | 0.91 | 1.04 | 0.875 | 0.795 | 0.976 | 0.944 | 0.625 | 0.438 | 0.484 | 0.389 | 0.444
NCI-H2085 | 0.979 | 0.73 | 0.67 | 0.478 | 0.552 | 0.767 | 0.575 | 0.62 | 0.53 | 0.445 | 0.853 | 0.6 | 0.493 | 0.497 | 0.589 | 0.513 | 0.478 | 0.446 | 0.541 | 0.43
NCI-H1395 | 0.363 | 0.367 | 0.398 | 0.375 | 0.329 | 0.673 | 0.53 | 0.603 | 0.523 | 0.393 | 0.986 | 0.956 | 0.814 | 0.705 | 0.77 | 0.578 | 0.547 | 0.538 | 0.47 | 0.521
NCI-H1648 | 0.625 | 0.535 | 0.681 | 0.551 | 0.341 | 0.356 | 0.394 | 0.419 | 0.384 | 0.372 |  |  |  |  |  |  |  |  |  | 
NCI-H460 | 0.575 | 0.618 | 0.282 | 0.237 | 0.118 | 0.734 | 0.329 | 0.283 | 0.116 | 0.116 | 1 | 0.872 | 0.624 | 0.581 | 0.207 | 0.42 | 0.396 | 0.379 | 0.275 | 0.126
A549 |  |  |  |  |  |  |  |  |  |  | 1.03 | 0.843 | 0.386 | 0.296 | 0.366 | 0.53 | 0.44 | 0.387 | 0.256 | 0.22
IA-LM |  |  |  |  |  |  | 0.539 | 0.277 | 0.238 | 0.249 | 0.905 | 0.55 | 0.47 | 0.299 | 0.33 | 0.133 | 0.121 | 0.136 | 0.114 | 0.114
EKVX | 0.795 | 0.756 | 0.607 | 0.537 | 0.337 | 0.76 | 0.634 | 0.549 | 0.439 | 0.53 | 0.818 | 0.767 | 0.811 | 0.705 | 0.324 | 0.477 | 0.4 | 0.455 | 0.339 | 0.355
ChaGo-K-1 | 0.904 | 0.936 | 0.931 | 0.745 | 0.411 | 0.772 | 0.706 | 0.752 | 0.691 | 0.297 | 1.06 | 0.873 | 0.848 | 0.852 | 0.665 | 0.694 | 0.8 | 0.71 | 0.618 | 0.542
NCI-H1755 | 0.411 | 0.453 | 0.416 | 0.365 | 0.395 | 0.75 | 0.764 | 0.781 | 0.739 | 0.596 | 0.88 | 0.889 | 0.908 | 0.849 | 0.456 | 0.466 | 0.358 | 0.423 | 0.344 | 0.274
